From patent US20060030054A1, “Fluorescent probe” (Daiichi Pure Chemicclas Co., LTD., of Tokyo, Japan, priority 2002, published 2006) come the findings set out here.

A short description of data set [1]: Complex formation constant from fluorescence intensity change on addition of sodium. The data set is classed as binding. Conditions: 0.2 M Tris-perchlorate buffer pH 7.5, sodium perchlorate, DMF 0.1%, compound 3 μM; read-out: Complex formation constant Na^+. As for the experimental part:
(§1) Fluorescence intensity changes of the compound obtained in Example 5 and the compound obtained in Example 7 above were measured with addition of sodium, magnesium, and potassium. Measurements were conducted in 0.2 M Tris-perchlorate buffers at pH 7.5 containing various concentrations of sodium perchlorate and magnesium perchlorate using dimethylformamide (0.1%) as co-solvent when sodium and magnesium were added, and in 0.2 M Tris-hydrochloride buffers at pH 7.5 containing various concentrations of potassium chloride using dimethylformamide (0.1%) as co-solvent when potassium was added. The final concentrations of the compounds obtained in Example 5 and Example 7 were adjusted to be 3 μM. The compound obtained in Example 5 was measured at excitation wavelength of 492 nm and fluorescence wavelength of 513 nm and the compound obtained in Example 7 was measured at excitation wavelength of 504 nm and fluorescence wavelength of […].

A short description of data set [2]: Fluorescence intensity change against pH change under co-presence of sodium. The data set is classed as physicochemical. Conditions: 0.2 M Tris-phosphate buffers at various pH, 500 mM sodium perchlorate, DMF 0.1%. The method, then:
Fluorescence intensity changes of the compound obtained in Example 7 and Sodium Green tetra(tetramethylammonium)salt (Molecular Probes Inc.) against pH change were studied under co-presence of sodium. Measurements were conducted in 0.2 M Tris-phosphate buffers at various pH containing 500 mM of sodium perchlorate using dimethylformamide (0.1%) as a co-solvent. The compound obtained in Example 7 was measured at excitation wavelength of 504 nm and fluorescence wavelength of 522 nm and Sodium Green tetra(tetramethylammonium)salt was measured at excitation wavelength of 508 nm and fluorescence wavelength of 533 nm.

Data set [3] can be described thus: Complex formation constant from fluorescence intensity change on addition of magnesium. Conditions: 0.2 M Tris-perchlorate buffer pH 7.5, magnesium perchlorate, DMF 0.1%, compound 3 μM. Format: binding. The method, then:
as §1

A short description of data set [4]: Complex formation constant from fluorescence intensity change on addition of potassium. The data set is classed as binding. Conditions: 0.2 M Tris-hydrochloride buffer pH 7.5, potassium chloride, DMF 0.1%, compound 3 μM; read-out: Complex formation constant K^+. The method, then:
as §1

Take `Cc1cc2c(cc1-c1c3cc(Cl)c(=O)cc-3oc3cc(O)c(Cl)cc13)OCCOCCOCCOCCO2` [Example 7]: the Kd was determined as 320 µM in data set [1] and 410 µM in data set [4]. Moreover, the “Susceptibility of fluorescence intensity to pH change compared with Sodium Green tetra(tetramethylammonium)salt” value in data set [2] is on record as “less susceptible to a pH change”. The “Complex formation constant Mg^+” value in data set [3] is recorded as “Unmeasurable”.
